≈ marks a conversion by molar mass, not a printed value.
What was measured:
Caenorhabditis elegans = test: In vitro inhibition against Caenorhabditis elegans motility for anthelmintic activity was measured; type: functional, organism-based
Ovis aries [1] = test: Evaluated for the anthelmintic activity against Trichostrongylus axei in sheep at dose of 2 mg/kg; value ranges from 91-100%; type: functional
Ovis aries [2] = test: Evaluated for the anthelmintic activity against Trichostrongylus colubriformis in sheep at dose of 0.5 mg/kg; value ranges from 91-100%; type: functional
Ovis aries [3] = test: Evaluated for the anthelmintic activity against Ostertagia circumcincta in sheep at dose of 0.5 mg/kg; value ranges from 91-100%; type: functional
Ovis aries [4] = test: Evaluated for the anthelmintic activity against Cooperia species in sheep at dose of 0.5 mg/kg; value ranges from 91-100%; type: functional
Ovis aries [5] = test: Evaluated for the anthelmintic activity against Haemonchus contortus in sheep at dose of 2 mg/kg; value ranges from 91-100%; type: functional
Ovis aries [6] = test: Evaluated for the anthelmintic activity against Cooperia species in sheep at dose of 2 mg/kg; value ranges from 91-100%; type: functional
Ovis aries [7] = test: Evaluated for the anthelmintic activity against Trichostrongylus colubriformis in sheep at dose of 2 mg/kg; value ranges from 91-100%; type: functional
Ovis aries [8] = test: Evaluated for the anthelmintic activity against Haemonchus contortus in sheep at dose of 0.5 mg/kg; value ranges from 91-100%; type: functional
Ovis aries [9] = test: Evaluated for the anthelmintic activity against Oesophagostomum columbianum in sheep at dose of 0.5 mg/kg; type: functional
Ovis aries [10] = test: Evaluated for the anthelmintic activity against Oesophagostomum columbianum in sheep at dose of 2 mg/kg; value ranges from 51-75%; type: functional
Ovis aries [11] = test: Evaluated for the anthelmintic activity against Trichostrongylus axei in sheep at dose of 0.5 mg/kg; value ranges from 91-100%; type: functional
Ovis aries [12] = test: Evaluated for the anthelmintic activity against Ostertagia circumcincta in sheep at dose of 2 mg/kg; value ranges from 91-100%; type: functional

## C#CCO[C@]1(C)CCN2CC34CC5(C(=O)Nc6c5ccc5c6OC=CC(C)(C)O5)C(C)(C)C3CC21C(=O)N4C (stereo partly specified)
Caenorhabditis elegans
  IC50: 7.5 µg/mL (≈ 14.1 µM)

## CN1C(=O)C23CC4C1(CN2CC[C@@]3(C)O[Si](C)(C)C)CC1(C(=O)Nc2c1ccc1c2OC=CC(C)(C)O1)C4(C)C (stereo partly specified)
Caenorhabditis elegans
  IC50: 3 µg/mL (≈ 5.3 µM)

## CN1C(=O)C23CC4C1(CN2CC[C@@]3(C)OCc1ccccc1)CC1(C(=O)Nc2c1ccc1c2OC=CC(C)(C)O1)C4(C)C (stereo partly specified)
Caenorhabditis elegans
  IC50: 65 µg/mL (≈ 111 µM)

## C=CCO[C@]1(C)CCN2CC34CC5(C(=O)Nc6c5ccc5c6OC=CC(C)(C)O5)C(C)(C)C3CC21C(=O)N4C (stereo partly specified)
Ovis aries [1]
  Reduction: 91%
Ovis aries [2]
  Reduction: 91%
Ovis aries [3]
  Reduction: 91%
Ovis aries [4]
  Reduction: 91%
Ovis aries [5]
  Reduction: 91%
Ovis aries [6]
  Reduction: 91%
Ovis aries [7]
  Reduction: 91%
Ovis aries [8]
  Reduction: 91%
Ovis aries [9]
  Reduction: <50%
Ovis aries [10]
  Reduction: 51%
Ovis aries [11]
  Reduction: 91%
Ovis aries [12]
  Reduction: 91%
Caenorhabditis elegans
  IC50: 15 µg/mL (≈ 28.1 µM)

## COCCOCO[C@]1(C)CCN2CC34CC5(C(=O)Nc6c5ccc5c6OC=CC(C)(C)O5)C(C)(C)C3CC21C(=O)N4C (stereo partly specified)
Caenorhabditis elegans
  IC50: 20 µg/mL (≈ 34.4 µM)

## CNC(=O)N(C)C(=O)O[C@]1(C)CCN2CC34CC5(C(=O)Nc6c5ccc5c6OC=CC(C)(C)O5)C(C)(C)C3CC21C(=O)N4C (stereo partly specified)
Caenorhabditis elegans
  IC50: 60 µg/mL (≈ 98.7 µM)

## CO[C@]1(C)CCN2CC34CC5(C(=O)Nc6c5ccc5c6OC=CC(C)(C)O5)C(C)(C)C3CC21C(=O)N4C (stereo partly specified)
Caenorhabditis elegans
  IC50: 70 µg/mL (≈ 138 µM)

## CCO[C@]1(C)CCN2CC34CC5(C(=O)Nc6c5ccc5c6OC=CC(C)(C)O5)C(C)(C)C3CC21C(=O)N4C (stereo partly specified)
Caenorhabditis elegans
  IC50: 2 µg/mL (≈ 3.83 µM)

## CCCCO[C@]1(C)CCN2CC34CC5(C(=O)Nc6c5ccc5c6OC=CC(C)(C)O5)C(C)(C)C3CC21C(=O)N4C (stereo partly specified)
Caenorhabditis elegans
  IC50: 5 µg/mL (≈ 9.1 µM)
